Reference: PMC9139167, “Rational Discovery of Antiviral Whey Protein-Derived Small Peptides Targeting the SARS-CoV-2 Main Protease” (Biomedicines, 2022)
Where a SMILES comes first, the peptide text is derived from it. The star is where a group is joined. Cbz = O=C(OCc1ccccc1)*

Tests used:
SARS-CoV-2 3CL Protease = SARS-CoV-2 3CL Protease (Severe acute respiratory syndrome coronavirus 2, UniProt P0DTD1); test: biochemical
3C^pro = conditions: ref [56]; cited from earlier work
DPP-4 = conditions: ref [33],[34]; cited from earlier work
Description: Recently, we investigated ACE inhibitory activity by peptide sequences, derived from the enzymatic hydrolysis of whey proteins and predicted by molecular docking and related prioritization studies.

Gram-positive bacteria = conditions: ref [33],[34]; cited from earlier work
[1] = read-out: Relative Inhibition (RI %)

`CC[C@H](C)[C@H](N)C(=O)N[C@@H](C)C(=O)N[C@@H](CCC(=O)O)C(=O)N[C@@H](CCCCN)C(=O)O` [IAEK] (H-IAEK-OH) gave an IC50 (SARS-CoV-2 3CL Protease) of 154 µM, an inhibition at 0.036 µM (SARS-CoV-2 3CL Protease; [1]) of 34.6 ± 1.13% and an inhibition at 0.36 µM (SARS-CoV-2 3CL Protease; [1]) of 40.5 ± 1.26%. The inhibition at 3.6 µM (SARS-CoV-2 3CL Protease; [1]) was 46.5 ± 3.48%, the inhibition at 36.6 µM (SARS-CoV-2 3CL Protease; [1]) was 46.6 ± 3.79% and the inhibition at 109.8 µM (SARS-CoV-2 3CL Protease; [1]) was 49.7 ± 3.16%. For the same molecule, the inhibition at 183 µM (SARS-CoV-2 3CL Protease; [1]) was 87.7 ± 1.61% and the inhibition at 366 µM (SARS-CoV-2 3CL Protease; [1]) was 84 ± 3.39%.

For “Cbz-Leu-Phe-Gln-aldehyde [tripeptide aldehydes]”, the “inhibitory activity against 3C^pro” value (3C^pro) is listed as “poor inhibitory activity”.

For IPAVFK, the DPP-4 inhibitory activity (DPP-4) is listed as “exhibited DPP-4 inhibitory activity” and the antimicrobial activity (Gram-positive bacteria) is listed as “antimicrobial activity against Gram-positive bacteria”.
